Results published in PubChem BioAssay (NCI).
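Cells were grown in 96-well plates and exposed to each compound for 48 hours at five concentrations; endpoints were interpolated linearly between bracketing concentrations, or set to the highest concentration if not reached. The concentration for full growth arrest is given as TGI.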

Key:
Assay in all cases: DTP human tumour cell line panel, 48 h
RPMI-8226 leukemia = test system: RPMI-8226 leukemia
A498 renal = test system: A498 renal
NCI/ADR-RES ovarian = test system: NCI/ADR-RES ovarian
MOLT-4 leukemia = test system: MOLT-4 leukemia
OVCAR-3 ovarian = test system: OVCAR-3 ovarian
SR leukemia = test system: SR leukemia
HS 578T breast = test system: HS 578T breast
COLO 205 colon = test system: COLO 205 colon
RXF 393 renal = test system: RXF 393 renal
SNB-19 CNS = test system: SNB-19 CNS
EKVX NSCLC = test system: EKVX NSCLC
MCF7 breast = test system: MCF7 breast
MDA-MB-231 breast = test system: MDA-MB-231 breast
PC-3 prostate = test system: PC-3 prostate
MDA-MB-435 = test system: MDA-MB-435
M14 melanoma = test system: M14 melanoma
NCI-H460 lung = test system: NCI-H460 lung
OVCAR-5 ovarian = test system: OVCAR-5 ovarian
SF-539 CNS = test system: SF-539 CNS
SF-295 CNS = test system: SF-295 CNS
SNB-75 CNS = test system: SNB-75 CNS
CCRF-CEM leukemia = test system: CCRF-CEM leukemia
SK-OV-3 ovarian = test system: SK-OV-3 ovarian
UO-31 renal = test system: UO-31 renal
TK-10 renal = test system: TK-10 renal
HOP-62 NSCLC = test system: HOP-62 NSCLC
K-562 leukemia = test system: K-562 leukemia
SF-268 CNS = test system: SF-268 CNS
UACC-62 melanoma = test system: UACC-62 melanoma
NCI-H23 lung = test system: NCI-H23 lung
MALME-3M melanoma = test system: MALME-3M melanoma
DU-145 prostate = test system: DU-145 prostate
ACHN renal = test system: ACHN renal
HCT-15 colon = test system: HCT-15 colon
U251 CNS = test system: U251 CNS
SK-MEL-5 melanoma = test system: SK-MEL-5 melanoma
SN12C renal = test system: SN12C renal
BT-549 breast = test system: BT-549 breast
IGROV1 ovarian = test system: IGROV1 ovarian
T-47D breast = test system: T-47D breast
SW-620 colon = test system: SW-620 colon
MDA-N = test system: MDA-N
NCI-H226 lung = test system: NCI-H226 lung
UACC-257 melanoma = test system: UACC-257 melanoma
CAKI-1 renal = test system: CAKI-1 renal
KM12 colon = test system: KM12 colon
SK-MEL-2 melanoma = test system: SK-MEL-2 melanoma
HL-60(TB) leukemia = test system: HL-60(TB) leukemia
OVCAR-8 ovarian = test system: OVCAR-8 ovarian
HT29 colon = test system: HT29 colon
LOX IMVI melanoma = test system: LOX IMVI melanoma
A549 NSCLC = test system: A549 NSCLC
HOP-92 NSCLC = test system: HOP-92 NSCLC
786-0 renal = test system: 786-0 renal
NCI-H522 lung = test system: NCI-H522 lung
OVCAR-4 ovarian = test system: OVCAR-4 ovarian
HCC-2998 colon = test system: HCC-2998 colon
SK-MEL-28 melanoma = test system: SK-MEL-28 melanoma
HCT-116 colon = test system: HCT-116 colon

CN(Cc1cnc2c(N)nc(N)nc2n1)c1ccc(Cl)cc1
TGI (RPMI-8226 leukemia): > 100 µM
TGI (A498 renal): 98.5 µM
TGI (NCI/ADR-RES ovarian): > 100 µM
TGI (MOLT-4 leukemia): > 100 µM
TGI (OVCAR-3 ovarian): > 100 µM
TGI (SR leukemia): > 100 µM
TGI (HS 578T breast): > 100 µM
TGI (COLO 205 colon): > 100 µM
TGI (RXF 393 renal): 61.5 µM
TGI (SNB-19 CNS): > 100 µM
TGI (EKVX NSCLC): > 100 µM
TGI (MCF7 breast): > 100 µM
TGI (MDA-MB-231 breast): > 100 µM
TGI (PC-3 prostate): > 100 µM
TGI (MDA-MB-435): > 100 µM
TGI (M14 melanoma): > 100 µM
TGI (NCI-H460 lung): > 100 µM
TGI (OVCAR-5 ovarian): > 100 µM
TGI (SF-539 CNS): 70.9 µM
TGI (SF-295 CNS): > 100 µM
TGI (SNB-75 CNS): 29.6 µM
TGI (CCRF-CEM leukemia): > 100 µM
TGI (SK-OV-3 ovarian): > 100 µM
TGI (UO-31 renal): > 100 µM
TGI (TK-10 renal): > 100 µM
TGI (HOP-62 NSCLC): > 100 µM
TGI (K-562 leukemia): > 100 µM
TGI (SF-268 CNS): > 100 µM
TGI (UACC-62 melanoma): > 100 µM
TGI (NCI-H23 lung): > 100 µM
TGI (MALME-3M melanoma): > 100 µM
TGI (DU-145 prostate): > 100 µM
TGI (ACHN renal): > 100 µM
TGI (HCT-15 colon): > 100 µM
TGI (U251 CNS): > 100 µM
TGI (SK-MEL-5 melanoma): > 100 µM
TGI (SN12C renal): > 100 µM
TGI (BT-549 breast): > 100 µM
TGI (IGROV1 ovarian): > 100 µM
TGI (T-47D breast): > 100 µM
TGI (SW-620 colon): > 100 µM
TGI (MDA-N): > 100 µM
TGI (NCI-H226 lung): 32.5 µM
TGI (UACC-257 melanoma): > 100 µM
TGI (CAKI-1 renal): > 100 µM
TGI (KM12 colon): > 100 µM
TGI (SK-MEL-2 melanoma): > 100 µM
TGI (HL-60(TB) leukemia): > 100 µM
TGI (OVCAR-8 ovarian): > 100 µM

COC(=O)CC1c2ccccc2N2C(=O)Cc3c([nH]c4ccccc34)C12 (stereo unspecified)
TGI (RPMI-8226 leukemia): > 100 µM
TGI (A498 renal): > 100 µM
TGI (NCI/ADR-RES ovarian): > 100 µM
TGI (MOLT-4 leukemia): > 100 µM
TGI (OVCAR-3 ovarian): > 100 µM
TGI (SR leukemia): > 100 µM
TGI (HT29 colon): > 100 µM
TGI (HS 578T breast): 96.2 µM
TGI (COLO 205 colon): > 100 µM
TGI (RXF 393 renal): > 100 µM
TGI (SNB-19 CNS): > 100 µM
TGI (EKVX NSCLC): > 100 µM
TGI (LOX IMVI melanoma): > 100 µM
TGI (MCF7 breast): > 100 µM
TGI (MDA-MB-231 breast): > 100 µM
TGI (PC-3 prostate): > 100 µM
TGI (MDA-MB-435): > 100 µM
TGI (M14 melanoma): > 100 µM
TGI (NCI-H460 lung): > 100 µM
TGI (OVCAR-5 ovarian): > 100 µM
TGI (SF-295 CNS): > 100 µM
TGI (A549 NSCLC): > 100 µM
TGI (SNB-75 CNS): > 100 µM
TGI (CCRF-CEM leukemia): > 100 µM
TGI (HOP-92 NSCLC): > 100 µM
TGI (SK-OV-3 ovarian): > 100 µM
TGI (786-0 renal): > 100 µM
TGI (UO-31 renal): > 100 µM
TGI (TK-10 renal): > 100 µM
TGI (HOP-62 NSCLC): > 100 µM
TGI (K-562 leukemia): > 100 µM
TGI (SF-268 CNS): > 100 µM
TGI (UACC-62 melanoma): > 100 µM
TGI (NCI-H23 lung): > 100 µM
TGI (MALME-3M melanoma): > 100 µM
TGI (DU-145 prostate): > 100 µM
TGI (NCI-H522 lung): > 100 µM
TGI (ACHN renal): > 100 µM
TGI (HCT-15 colon): > 100 µM
TGI (U251 CNS): > 100 µM
TGI (SK-MEL-5 melanoma): > 100 µM
TGI (OVCAR-4 ovarian): > 100 µM
TGI (SN12C renal): > 100 µM
TGI (BT-549 breast): > 100 µM
TGI (IGROV1 ovarian): > 100 µM
TGI (HCC-2998 colon): > 100 µM
TGI (SK-MEL-28 melanoma): > 100 µM
TGI (T-47D breast): > 100 µM
TGI (SW-620 colon): > 100 µM
TGI (MDA-N): > 100 µM
TGI (NCI-H226 lung): > 100 µM
TGI (HCT-116 colon): > 100 µM
TGI (UACC-257 melanoma): > 100 µM
TGI (CAKI-1 renal): > 100 µM
TGI (KM12 colon): > 100 µM
TGI (SK-MEL-2 melanoma): > 100 µM
TGI (OVCAR-8 ovarian): > 100 µM
